Here are results for 2 molecules from ChEMBL document CHEMBL5727955, “Aminopyrazoles as janus kinase inhibitors” (2020).

For assay [1], the target named is Tyrosine-protein kinase JAK1 (Homo sapiens, UniProt P23458). Nature of the assay: (§1) Biochemical HTRF Enzyme Assay Protocol: The basic assay protocol is as follows: First, 250 nL of diluted compounds in DMSO were dispensed into the wells of a dry 384-well Black plate (GreinerFluotrac™ catalog number: 781076; Greiner Bio-One GmbH, Frickenhausen, Germany) using a Labcyte Echo® 555 acoustic dispenser ([…], Sunnyvale, Calif., USA). Subsequent reagent additions employed an Agilent™ Bravo™ liquid handling system (Aligent Technologies, Santa Clara, Calif., USA). […] After equilibration, 2 μL of 10×ATP in 1× assay buffer was added to initiate the kinase reaction and the plates were shaken and then incubated at ambient temperature for 120 minutes. At the end of the incubation, 20 μL of 2× stop buffer (Streptavidin-Dylight 650/100 mL catalogue number: 8454B (Invitrogen™/Life Technologies/ThermoFisher Scientific Inc., Waltham, Mass., USA); Europium-tagged pY20 antibody (PerkinElmer™ catalogue number: AD0067 (PerkinElmer™, Waltham, Mass., USA)); EDTA; HEPES; and Triton™ X-100 (Sigma-Aldrich, St. Louis, Mo., USA) was added to quench the reaction.

For assay [2], the target named is Tyrosine-protein kinase JAK2 (Homo sapiens, UniProt O60674). Described as §1.

The structures appear in SMILES notation.

Chain of Tyrosine-protein kinase JAK1 (P23458 whole entry): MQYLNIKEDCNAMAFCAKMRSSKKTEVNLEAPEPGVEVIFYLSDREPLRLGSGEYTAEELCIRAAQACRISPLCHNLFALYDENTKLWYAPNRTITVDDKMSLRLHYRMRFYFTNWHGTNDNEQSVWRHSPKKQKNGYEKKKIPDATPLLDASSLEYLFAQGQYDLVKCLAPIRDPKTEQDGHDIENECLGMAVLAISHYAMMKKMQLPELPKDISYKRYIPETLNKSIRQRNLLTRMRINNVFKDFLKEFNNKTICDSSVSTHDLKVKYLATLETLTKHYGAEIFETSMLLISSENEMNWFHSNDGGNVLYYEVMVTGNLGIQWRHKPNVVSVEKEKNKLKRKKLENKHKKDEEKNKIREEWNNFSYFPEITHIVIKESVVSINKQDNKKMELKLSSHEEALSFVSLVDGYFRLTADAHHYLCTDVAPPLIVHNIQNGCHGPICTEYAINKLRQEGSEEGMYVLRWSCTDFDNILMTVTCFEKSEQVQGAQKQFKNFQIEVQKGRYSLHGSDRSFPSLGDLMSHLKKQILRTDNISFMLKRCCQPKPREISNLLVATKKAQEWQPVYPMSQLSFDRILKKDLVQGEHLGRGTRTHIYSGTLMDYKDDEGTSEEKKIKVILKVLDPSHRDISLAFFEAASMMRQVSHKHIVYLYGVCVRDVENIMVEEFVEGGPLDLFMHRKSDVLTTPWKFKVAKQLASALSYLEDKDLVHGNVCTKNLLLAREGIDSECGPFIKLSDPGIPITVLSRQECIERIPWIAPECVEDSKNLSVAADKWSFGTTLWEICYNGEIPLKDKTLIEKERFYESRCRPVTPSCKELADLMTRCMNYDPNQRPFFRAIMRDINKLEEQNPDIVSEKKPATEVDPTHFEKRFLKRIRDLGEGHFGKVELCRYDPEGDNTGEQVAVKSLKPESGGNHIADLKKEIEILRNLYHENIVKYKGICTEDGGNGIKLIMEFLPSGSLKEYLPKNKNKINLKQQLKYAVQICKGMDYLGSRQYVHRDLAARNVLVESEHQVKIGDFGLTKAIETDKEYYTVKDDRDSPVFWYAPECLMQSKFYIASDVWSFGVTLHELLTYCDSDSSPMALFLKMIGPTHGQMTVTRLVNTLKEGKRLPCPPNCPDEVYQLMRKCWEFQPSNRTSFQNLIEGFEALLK
Chain of Tyrosine-protein kinase JAK2 (O60674 whole entry): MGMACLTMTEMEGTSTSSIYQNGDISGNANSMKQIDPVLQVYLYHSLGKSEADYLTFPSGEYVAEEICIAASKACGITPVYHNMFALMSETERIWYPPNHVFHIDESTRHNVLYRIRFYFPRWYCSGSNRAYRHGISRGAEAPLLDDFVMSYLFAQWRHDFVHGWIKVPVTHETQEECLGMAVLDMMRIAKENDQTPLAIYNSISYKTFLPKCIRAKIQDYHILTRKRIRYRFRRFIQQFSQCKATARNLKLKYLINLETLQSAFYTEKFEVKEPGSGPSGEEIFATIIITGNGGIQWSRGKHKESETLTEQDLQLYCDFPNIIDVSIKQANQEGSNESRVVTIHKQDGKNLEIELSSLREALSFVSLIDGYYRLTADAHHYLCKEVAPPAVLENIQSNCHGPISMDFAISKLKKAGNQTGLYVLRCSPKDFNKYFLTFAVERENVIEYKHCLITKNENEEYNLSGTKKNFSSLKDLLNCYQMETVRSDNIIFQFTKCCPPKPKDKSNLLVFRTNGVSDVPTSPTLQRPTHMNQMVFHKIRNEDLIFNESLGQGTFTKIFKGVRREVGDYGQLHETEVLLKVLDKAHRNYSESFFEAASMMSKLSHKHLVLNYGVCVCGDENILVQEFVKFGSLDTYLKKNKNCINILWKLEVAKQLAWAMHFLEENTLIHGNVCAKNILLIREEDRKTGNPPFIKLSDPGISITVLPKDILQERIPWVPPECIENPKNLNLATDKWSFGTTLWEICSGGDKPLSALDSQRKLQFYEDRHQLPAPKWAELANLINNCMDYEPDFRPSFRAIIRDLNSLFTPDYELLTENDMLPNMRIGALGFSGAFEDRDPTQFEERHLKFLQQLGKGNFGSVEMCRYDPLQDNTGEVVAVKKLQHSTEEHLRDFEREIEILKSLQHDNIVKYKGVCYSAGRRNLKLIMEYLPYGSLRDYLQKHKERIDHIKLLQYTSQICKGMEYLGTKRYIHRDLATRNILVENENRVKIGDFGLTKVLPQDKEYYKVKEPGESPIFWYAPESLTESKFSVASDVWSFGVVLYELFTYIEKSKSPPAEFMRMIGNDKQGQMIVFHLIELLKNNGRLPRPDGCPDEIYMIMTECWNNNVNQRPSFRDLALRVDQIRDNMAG

In the case of `N#C[C@H]1CCOC[C@@H]1n1cc(C(N)=O)c(Nc2ccc(Cl)c(Cl)c2)n1`, it took 2.09 nM to reach half-maximal inhibition in assay [1] (IC50).

Take `N#C[C@H]1CCOC[C@@H]1n1cc(C(N)=O)c(Nc2ccc(OC(F)(F)F)cc2)n1`: the IC50 (as a rule, the concentration that gives 50% inhibition) was 1.35 nM in assay [2] and 0.16 nM in assay [1].
